For two compounds, pest or weed control and melting point results are on record in US6784137B2, “6-aryl-4-aminopicolinates and their use as herbicides” (Dow AgroSciences LLC, priority 2001, dated 2004).

One data set concerns Wheat(var. Merica) (Triticum aestivum). The data set is described as follows: Postemergence herbicidal activity, selectivity to wheat. The format is in vivo. Conditions: post-emergence, 336 h, Table 3, rate 62.5 (unit inferred), crop injury, read-out: Post-emergent % control TRZAS. Here is the method: Seeds of the desired test plant species were planted in Grace-Sierra MetroMix® 306 planting mixture, which typically has a pH of 6.0 to 6.8 and an organic matter content of about 30 percent, in plastic pots with a surface area of 64 square centimeters. When required to ensure good germination and healthy plants, a fungicide treatment and/or other chemical or physical treatment was applied. The plants were grown for 7-21 days in a greenhouse with an approximate 15 hr photoperiod which was maintained at about 23-29° C. during the day and 22-28° C. during the night. Nutrients and water were added on a regular basis and supplemental lighting was provided with overhead metal halide 1000-Watt lamps as necessary. The plants were employed for testing when they reached the first or second true leaf stage. A weighed amount, determined by the highest rate to be tested, of each test compound was placed in a 20 mL glass vial and was dissolved in 4 mL of a 97:3 v/v (volume/volume) mixture of acetone and dimethyl sulfoxide (DMSO) to obtain concentrated stock solutions. […] The concentrated stock solutions obtained were diluted with an aqueous mixture containing acetone, water, isopropyl alcohol, DMSO, At plus 411 F crop oil concentrate, and Triton X-155 surfactant in a 48.5:39:10:1.5:1.0:0.02 v/v ratio to obtain spray solutions of known concentration. The solutions containing the highest concentration to be tested were prepared by diluting 2 mL aliquots of the stock solution with 13 mL of the mixture and lower concentrations were prepared by serial dilution of the stock solution. Approximately 1.5 mL aliquots of each solution of known concentration were sprayed evenly onto each of the test plant pots using a DeVilbiss atomizer driven by compressed air pressure of […] (140 to 280 kiloPascals) to obtain thorough coverage of each plant. Control plants were sprayed in the same manner with the aqueous mixture. In this test an application rate of 1 ppm results in the application of approximately 1 g/Ha. The treated plants and control plants were placed in a greenhouse as described above and watered by sub-irrigation to prevent wash-off of the test compounds. After 2 weeks the condition of the test plants as compared with that of the untreated plants was determined visually and scored on a scale of 0 to 100 percent where 0 corresponds to no injury and 100 corresponds to complete kill.
Turning to `Nc1cc(-c2ccc3c(c2)OCO3)nc(C(=O)O)c1Cl` [Compound 153, 4-Amino-3-chloro-6-(3,4-methylenedioxyphenyl)pyridine-2-carboxylic acid], the pest or weed control at 62.5 µg/mL is 10%.
Still for that read-out and setting: the same measure for `COC(=O)c1nc(-c2ccc3c(c2)OCO3)cc(N)c1Cl` [Compound 29, Methyl 4-amino-3-chloro-6-(3,4-methylenedioxyphenyl)pyridine-2-carboxylate]: 10%.

The next data set relates to Pigweed (redroot) (Amaranthus retroflexus). The data set is described as follows: Postemergence herbicidal activity, greenhouse spray. The format is in vivo. Conditions: Amaranthus retroflexus, post-emergence, 336 h; Table 3; rate 62.5 (unit inferred); visual score after 2 weeks; read-out: Post-emergent % control AMARE. An outline of the steps: (§1)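 Test compounds, serially diluted into an aqueous acetone–isopropanol–DMSO vehicle with crop oil concentrate and Triton X-155, were atomizer-sprayed over plants at the 1–2 true leaf stage. Plants grew 7–21 days beforehand under ~15 h light; sub-irrigation followed treatment, with vehicle-sprayed controls.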
For `Nc1cc(-c2ccc3c(c2)OCO3)nc(C(=O)O)c1Cl` [Compound 153, 4-Amino-3-chloro-6-(3,4-methylenedioxyphenyl)pyridine-2-carboxylic acid], the pest or weed control at 62.5 µg/mL turned out to be 100%.
The same measure, in the same setting: the same measure for `COC(=O)c1nc(-c2ccc3c(c2)OCO3)cc(N)c1Cl` [Compound 29, Methyl 4-amino-3-chloro-6-(3,4-methylenedioxyphenyl)pyridine-2-carboxylate]: 90%.

A further data set relates to Barnyardgrass (Echinochloa crus-galli). Described as above. The format is in vivo. The note with it: Echinochloa crus-galli, post-emergence, 336 h, Table 1; rate 500 ppm; visual score after 2 weeks; read-out: Post-emergent % control ECHCG. Summed up: as §1
`Nc1cc(-c2ccc3c(c2)OCO3)nc(C(=O)O)c1Cl` [Compound 153, 4-Amino-3-chloro-6-(3,4-methylenedioxyphenyl)pyridine-2-carboxylic acid]: the pest or weed control at 500 ppm is 95%.
On the same count and under the same terms, the same measure for `COC(=O)c1nc(-c2ccc3c(c2)OCO3)cc(N)c1Cl` [Compound 29, Methyl 4-amino-3-chloro-6-(3,4-methylenedioxyphenyl)pyridine-2-carboxylate]: 95%.

In the next data set the test system is Yellow nutsedge (Cyperus esculentus). The description is as above. Conditions: Cyperus, post-emergence, 336 h, Table 1; rate 500 ppm; visual score after 2 weeks; read-out: Post-emergent % control CYPES. The format is in vivo. Summed up: as §1
In the case of `Nc1cc(-c2ccc3c(c2)OCO3)nc(C(=O)O)c1Cl` [Compound 153, 4-Amino-3-chloro-6-(3,4-methylenedioxyphenyl)pyridine-2-carboxylic acid], the pest or weed control at 500 ppm is 70%.
As for `COC(=O)c1nc(-c2ccc3c(c2)OCO3)cc(N)c1Cl` [Compound 29, Methyl 4-amino-3-chloro-6-(3,4-methylenedioxyphenyl)pyridine-2-carboxylate], the pest or weed control at 500 ppm was 80%.

The next data set concerns Cocklebur (Xanthium strumarium). The data set is described as above. Conditions: Xanthium strumarium, post-emergence, 336 h; Table 1; rate 500 ppm; visual score after 2 weeks, 0 no injury, 100 complete kill; read-out: Post-emergent % control XANST. The format is in vivo. An outline of the steps: as §1
On to `Nc1cc(-c2ccc3c(c2)OCO3)nc(C(=O)O)c1Cl` [Compound 153, 4-Amino-3-chloro-6-(3,4-methylenedioxyphenyl)pyridine-2-carboxylic acid], for which the pest or weed control at 500 ppm worked out at 100%.
On the same count and under the same terms, the same measure for `COC(=O)c1nc(-c2ccc3c(c2)OCO3)cc(N)c1Cl` [Compound 29, Methyl 4-amino-3-chloro-6-(3,4-methylenedioxyphenyl)pyridine-2-carboxylate]: 100%.

For another data set, the system named is Lambsquarter (Chenopodium album). The data set is described as above. The format is in vivo. Conditions: Chenopodium album, post-emergence, 336 h; Table 1; rate 500 ppm; visual score after 2 weeks; read-out: Post-emergent % control CHEAL. An outline of the steps:
as §1
Consider `Nc1cc(-c2ccc3c(c2)OCO3)nc(C(=O)O)c1Cl` [Compound 153, 4-Amino-3-chloro-6-(3,4-methylenedioxyphenyl)pyridine-2-carboxylic acid], for which the pest or weed control at 500 ppm is 98%.
On the same count and under the same terms, the same measure for `COC(=O)c1nc(-c2ccc3c(c2)OCO3)cc(N)c1Cl` [Compound 29, Methyl 4-amino-3-chloro-6-(3,4-methylenedioxyphenyl)pyridine-2-carboxylate]: 100%.

Tested on in a further data set: not given
Assay: not given
Details: not given
Consider `Nc1cc(-c2ccc3c(c2)OCO3)nc(C(=O)O)c1Cl` [Compound 153, 4-Amino-3-chloro-6-(3,4-methylenedioxyphenyl)pyridine-2-carboxylic acid], for which the melting point (in general, the temperature, or range, at which the solid turns liquid) was found to be 182 °C.
Same read-out and setting: the same measure for `COC(=O)c1nc(-c2ccc3c(c2)OCO3)cc(N)c1Cl` [Compound 29, Methyl 4-amino-3-chloro-6-(3,4-methylenedioxyphenyl)pyridine-2-carboxylate]: 184 °C.

For a further data set, the system named is Pigweed (redroot) (Amaranthus retroflexus). Kind of data set: Preemergence herbicidal activity, soil spray. The format is in vivo. Conditions: Amaranthus retroflexus, pre-emergence, 504 h; Table 5; rate 560 ppm; visual score after 3 weeks; read-out: Pre-emergent % control AMARE. An outline of the steps:
(§2)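 Test species were planted first, then the soil of each pot was sprayed with compound solutions of known concentration made in water containing 0.1% Tween 155 from acetone–DMSO stocks. The growth matrix was a 70:30 loam and sand blend with pH near 8.1.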
`Nc1cc(-c2ccc3c(c2)OCO3)nc(C(=O)O)c1Cl` [Compound 153, 4-Amino-3-chloro-6-(3,4-methylenedioxyphenyl)pyridine-2-carboxylic acid]: the pest or weed control at 560 ppm is 100%.
The same measure, in the same setting: to `COC(=O)c1nc(-c2ccc3c(c2)OCO3)cc(N)c1Cl` [Compound 29, Methyl 4-amino-3-chloro-6-(3,4-methylenedioxyphenyl)pyridine-2-carboxylate] belongs 95%.

For another data set, the system named is Giant Foxtail (Setaria faberi). Kind of data set: Preemergence herbicidal activity, soil spray. It counts as in vivo. The note with it: Setaria faberi, pre-emergence, 504 h, Table 5; rate 560 ppm; visual score after 3 weeks; read-out: Pre-emergent % control SETFA. Summed up: as §2
In the case of `Nc1cc(-c2ccc3c(c2)OCO3)nc(C(=O)O)c1Cl` [Compound 153, 4-Amino-3-chloro-6-(3,4-methylenedioxyphenyl)pyridine-2-carboxylic acid], the pest or weed control at 560 ppm amounted to 100%.
In the case of `COC(=O)c1nc(-c2ccc3c(c2)OCO3)cc(N)c1Cl` [Compound 29, Methyl 4-amino-3-chloro-6-(3,4-methylenedioxyphenyl)pyridine-2-carboxylate], the pest or weed control at 560 ppm was 90%.

The next data set relates to Crabgrass(large) (Digitaria sanguinalis). The data set is described as follows: Preemergence herbicidal activity, soil spray. Conditions: Digitaria sanguinalis, pre-emergence, 504 h; Table 5; rate 560 ppm; visual score after 3 weeks; read-out: Pre-emergent % control DIGSA. The format is in vivo. Summed up:
as §2
Turning to `Nc1cc(-c2ccc3c(c2)OCO3)nc(C(=O)O)c1Cl` [Compound 153, 4-Amino-3-chloro-6-(3,4-methylenedioxyphenyl)pyridine-2-carboxylic acid], the pest or weed control at 560 ppm was determined as 100%.
Still for that read-out and setting: the same measure for `COC(=O)c1nc(-c2ccc3c(c2)OCO3)cc(N)c1Cl` [Compound 29, Methyl 4-amino-3-chloro-6-(3,4-methylenedioxyphenyl)pyridine-2-carboxylate]: 100%.

For another data set, the system named is Lambsquarter (Chenopodium album). The data set is described as follows: Preemergence herbicidal activity, soil spray. The format is in vivo. Conditions: Chenopodium album, pre-emergence, 504 h; Table 5; rate 560 ppm; visual score after 3 weeks, 100 complete kill or no germination; read-out: Pre-emergent % control CHEAL. An outline of the steps:
as §2
`Nc1cc(-c2ccc3c(c2)OCO3)nc(C(=O)O)c1Cl` [Compound 153, 4-Amino-3-chloro-6-(3,4-methylenedioxyphenyl)pyridine-2-carboxylic acid]: the pest or weed control at 560 ppm was 100%.
Take `COC(=O)c1nc(-c2ccc3c(c2)OCO3)cc(N)c1Cl` [Compound 29, Methyl 4-amino-3-chloro-6-(3,4-methylenedioxyphenyl)pyridine-2-carboxylate]: the pest or weed control at 560 ppm stood at 100%.
